{
  "source": "patent US20250367100A1",
  "about": "“GINSENOSIDE COMPOSITION, DAILY CHEMICAL AND USE” (INCIPIRIT TECH (GUANGZHOU) CO., LTD., priority 2023, published 2025)",
  "system": "human epidermal keratinocytes",
  "experiment": "Proliferation of epidermal keratinocytes in a co-culture system of dermal papilla cells and epidermal keratinocytes",
  "assay_type": "cell-based",
  "conditions": "0.2 μg/ml, 2 μg/ml, 20 μg/ml, 200 μg/ml, FIG. 5",
  "experimental": "Add 500 μl of human epidermal keratinocytes (30,000 cells/ml) to each well of a 24-well MULTIWELL plate, then add a 1.0 μm of cell culture insert, and culture for 1 day. The 1.0 μm of cell culture insert already contains 300 μl of dermal papilla cells (20,000 cells/ml). Subsequently, add 1 μl/well each of the ginseng extracts 1-7, the positive control minoxidil sulfate, and the blank control (DMSO), and continue culturing for 3 days. Remove the 1.0 μm of cell culture insert, add 50 μl/well of Cell Counting Kit-8 (Dojindo Molecular Technologies, Inc.), continue culturing for 2 hours, and determine cell number using a microplate reader (450 nm, Mix 0).",
  "note": "Counter-ions that a name gives are not always drawn.",
  "data": [
    {"smiles": "Nc1cc(N2CCCCC2)nc(N)[n+]1OS(=O)(=O)[O-]", "note": "[minoxidil sulfate]", "values": [
      {"measurement": "proliferation of keratinocytes in co-culture system", "result": "no effect in promoting the proliferation of keratinocyte"}
    ]}
  ]
}
